Results taken from US8039621B2, “Process for preparing anhydrous Aripirazole type I” (Cambrex Charles City, Inc., priority 2006, dated 2011).

Test: Hygroscopicity of dried anhydrous aripiprazole Type I crystals
Assay type: physicochemical
Details: vacuum of 22 inches Hg
Method: […] A dish of phosphorous pentoxide (dessicant) also was placed in the oven. Periodically, approximately a one (1) gram sample of the aripiprazole wet cake was removed from the oven and analyzed for moisture content by the volumetric Karl Fischer titration method and also for its hygroscopicity. At the end of the 40 hour period, the moisture content of the final sample was analyzed using the coulometric Karl Fischer titration method and the hygroscopicity of the sample also was determined.
Another portion of the aripiprazole wet cake (20 g), prepared in accordance with the above-described procedure, was placed in a drying oven, the oven maintained at a temperature between 70 to 80° C., and under a vacuum of 22 inches Hg for a period of 40 hours. A dish of phosphorous pentoxide (dessicant) also was placed in the oven to facilitate drying. Periodically, approximately a one (1) gram sample of the aripiprazole wet cake was removed from the oven and analyzed for moisture content by the volumetric Karl Fischer titration method and also for its hygroscopicity. At the end of the 40 hours, the moisture content of the final sample was analyzed using the coulometric Karl Fischer titration method and the hygroscopicity of the sample also was determined.

[1] = final sample after 40 Hours in 60 to 65° C. Oven
[2] = final sample after 40 Hours in 70 to 80° C. Oven

SMILES	Hygroscopicity (%) [1] [%]	Hygroscopicity (%) [2] [%]
O=C1CCc2ccc(OCCCCN3CCN(c4cccc(Cl)c4Cl)CC3)cc2N1 [Batch 1, 7-[4-[4-(2,3-dichlorophenyl)-1-piperazinyl]butoxy]-3,4-dihydro-2-(1H)-quinolinone]	3.2	0.8
O=C1CCc2ccc(OCCCCN3CCN(c4cccc(Cl)c4Cl)CC3)cc2N1 [Batch 2, 7-[4-[4-(2,3-dichlorophenyl)-1-piperazinyl]butoxy]-3,4-dihydro-2-(1H)-quinolinone]	1.2	0.7
O=C1CCc2ccc(OCCCCN3CCN(c4cccc(Cl)c4Cl)CC3)cc2N1 [Batch 3, 7-[4-[4-(2,3-dichlorophenyl)-1-piperazinyl]butoxy]-3,4-dihydro-2-(1H)-quinolinone]	1.8	0.4
